Source: patent US20240158446A1, “CYCLIC COMPOUND HAVING SELECTIVE INHIBITORY ACTION ON KRAS OVER HRAS AND NRAS” (CHUGAI SEIYAKU KABUSHIKI KAISHA, priority 2021, published 2024)
pKd: −log10 of the molar value.

Assays:
[1] = biological target: GDP-bound KRAS wild-type protein (Homo sapiens, UniProt P01116); experiment: Binding to KRAS by surface plasmon resonance (SPR), Single Cycle Kinetics; details: SPR, Single Cycle Kinetics, GDP-bound KRAS wild-type protein; read-out: KRAS KD
[2] = biological target: GDP-bound NRAS wild-type protein (Homo sapiens, UniProt P01111); experiment: Binding to NRAS by surface plasmon resonance (SPR), Single Cycle Kinetics; details: ratio of KD for GDP-bound NRAS wild-type protein to KD for KRAS, SPR
Chain of GDP-bound NRAS wild-type protein (P01111 whole entry): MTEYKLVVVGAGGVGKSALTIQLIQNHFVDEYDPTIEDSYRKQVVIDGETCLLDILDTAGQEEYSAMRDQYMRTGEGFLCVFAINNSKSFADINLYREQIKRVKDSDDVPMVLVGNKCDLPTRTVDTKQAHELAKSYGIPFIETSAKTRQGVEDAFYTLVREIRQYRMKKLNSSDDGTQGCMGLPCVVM

[3] = biological target: GDP-bound HRAS wild-type protein (Homo sapiens, UniProt P01112); experiment: Binding to HRAS by surface plasmon resonance (SPR), Single Cycle Kinetics; details: ratio of KD for GDP-bound HRAS wild-type protein to KD for KRAS, SPR
Chain of GDP-bound HRAS wild-type protein (P01112 whole entry): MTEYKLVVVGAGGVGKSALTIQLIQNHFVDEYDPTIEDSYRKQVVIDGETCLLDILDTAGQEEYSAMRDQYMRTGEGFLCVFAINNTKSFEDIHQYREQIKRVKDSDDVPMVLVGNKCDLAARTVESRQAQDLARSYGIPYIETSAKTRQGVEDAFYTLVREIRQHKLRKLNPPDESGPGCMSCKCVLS

[4] = test system: human lung cancer strain NCI-H441; experiment: cells; details: NCI-H441, 96 h, read-out: NCI-H441 IC50 (nM), NCI-H441 cell proliferation, 4 days, CellTiter-Glo;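 further: cell proliferation inhibition after four days measured by CellTiter-Glo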

Chain of GDP-bound KRAS wild-type protein (P01116 whole entry): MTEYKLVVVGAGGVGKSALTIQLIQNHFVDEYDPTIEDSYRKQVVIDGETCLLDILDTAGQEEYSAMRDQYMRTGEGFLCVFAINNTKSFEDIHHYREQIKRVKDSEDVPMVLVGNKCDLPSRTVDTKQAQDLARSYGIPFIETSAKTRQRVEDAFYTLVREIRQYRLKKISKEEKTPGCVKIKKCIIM

Compound	pKd [1]	NRAS/KRAS (KD ratio) [2]	HRAS/KRAS (KD ratio) [3]	IC50 [4] [nM]
CCCN1C(=O)C[C@@H](C(=O)N(C)C)N(C)C(=O)[C@H](C2CCCC2)N(C)C(=O)C2(CCC2)NC(=O)[C@@H]2C[C@@H](OCC)CN2C(=O)[C@H](CCc2cc(F)c(C(F)(F)F)c(F)c2)NC(=O)CN(C)C(=O)[C@H](Cc2ccc(C(F)(F)F)cc2)N2CC/C=C\C[C@@H](C2=O)N(C)C(=O)CNC(=O)[C@H]([C@@H](C)CC)NC(=O)[C@@H]1CC(C)C [PP1826]	9.49	A (a compound having 10 or more and less than 20 is denoted as A)	A (a compound having 10 or more and less than 20 is denoted as A)	17.6
CC[C@H](C)[C@@H]1NC(=O)[C@H](CC)N(C)C(=O)C[C@@H](C(=O)N(C)C)N(C)C(=O)[C@H](C2CCCC2)N(C)C(=O)C2(CC(C)(C)C2)NC(=O)[C@@H]2C[C@H](C)CN2C(=O)[C@H](CCc2ccc(C(F)(F)F)c(OC)c2)NC(=O)CN(C)C(=O)[C@H](Cc2ccc(C)cc2)N2CC/C=C\C[C@@H](C2=O)N(C)C(=O)CN(C)C1=O [PP1836]	10.00	A (a compound having 10 or more and less than 20 is denoted as A)	B (a compound having 3 or more and less than 10 is denoted as B)	10.7
CC[C@H](C)[C@@H]1NC(=O)[C@H](CC(F)F)N(C)C(=O)C[C@@H](C(=O)N(C)CC)N(C)C(=O)[C@H](C2CCCC2)N(C)C(=O)C2(CC(C)(C)C2)NC(=O)[C@@H]2C[C@@H](C)CN2C(=O)[C@H](CCc2ccc(C(F)(F)F)c(Cl)c2)NC(=O)CN(C)C(=O)[C@H](Cc2ccc(C)cc2)N2CC/C=C\C[C@@H](C2=O)N(C)C(=O)CN(C)C1=O [PP1837]	9.70	A (a compound having 10 or more and less than 20 is denoted as A)	A (a compound having 10 or more and less than 20 is denoted as A)	15.6
CC[C@H](C)[C@@H]1NC(=O)[C@H](CC)N(C)C(=O)C[C@@H](C(=O)N(C)C)N(C)C(=O)[C@H](C2CCCC2)N(C)C(=O)C2(CC(C)(C)C2)NC(=O)[C@@H]2C[C@@H](C)CN2C(=O)[C@H](CCc2ccc(C(F)(F)F)c(OC)c2)NC(=O)CN(C)C(=O)[C@H](Cc2ccc(C)cc2)N2CC/C=C\C[C@@H](C2=O)N(C)C(=O)CN(C)C1=O [PP1838]	10.00	A (a compound having 10 or more and less than 20 is denoted as A)	A (a compound having 10 or more and less than 20 is denoted as A)	20
CC[C@H](C)[C@@H]1NC(=O)[C@H](CC)N(C)C(=O)C[C@@H](C(=O)N(CC)CC)N(C)C(=O)[C@H](C2CCCC2)N(C)C(=O)C2(CC(C)(C)C2)NC(=O)[C@@H]2C[C@H](C)CN2C(=O)[C@H](CCc2ccc(C(F)(F)F)c(OC)c2)NC(=O)CN(C)C(=O)[C@H](Cc2ccc(C)cc2)N2CC/C=C\C[C@@H](C2=O)N(C)C(=O)CN(C)C1=O [PP1839]	9.51	A (a compound having 10 or more and less than 20 is denoted as A)	B (a compound having 3 or more and less than 10 is denoted as B)	24.3
CC[C@H](C)[C@@H]1NC(=O)[C@H](CC)N(C)C(=O)C[C@@H](C(=O)N(CC)CC)N(C)C(=O)[C@H](C2CCCC2)N(C)C(=O)C2(CC(C)(C)C2)NC(=O)[C@@H]2C[C@@H](C)CN2C(=O)[C@H](CCc2ccc(C(F)(F)F)c(OC)c2)NC(=O)CN(C)C(=O)[C@H](Cc2ccc(C)cc2)N2CC/C=C\C[C@@H](C2=O)N(C)C(=O)CN(C)C1=O [PP1841]	9.42	AA (a compound having 20 or more is denoted as AA)	A (a compound having 10 or more and less than 20 is denoted as A)	24.3
CC[C@H](C)[C@@H]1NC(=O)[C@H](CC)N(C)C(=O)C[C@@H](C(=O)N(C)C)N(C)C(=O)[C@H](C2CCCC2)N(C)C(=O)C2(CC(C)(C)C2)NC(=O)[C@@H]2C[C@H](C)CN2C(=O)[C@H](CCc2ccc(C(F)(F)F)c(Cl)c2)NC(=O)CN(C)C(=O)[C@H](Cc2ccc(C)cc2)N2CC/C=C\C[C@@H](C2=O)N(C)C(=O)CN(C)C1=O [PP1844]	10.15	A (a compound having 10 or more and less than 20 is denoted as A)	B (a compound having 3 or more and less than 10 is denoted as B)	12.3
CC[C@H](C)[C@@H]1NC(=O)[C@H](CC(C)C)N(C)C(=O)C[C@@H](C(=O)N(C)C)N(C)C(=O)[C@H](C2CCCC2)N(C)C(=O)C2(CCC2)NC(=O)[C@@H]2C[C@@H](C)CN2C(=O)[C@H](CCc2ccc(C(F)(F)F)c(Cl)c2)NC(=O)CN(C)C(=O)[C@H](Cc2ccc(C)cc2)N2CC/C=C\C[C@@H](C2=O)N(C)C(=O)CN(C)C1=O [PP1854]	10.02	A (a compound having 10 or more and less than 20 is denoted as A)	A (a compound having 10 or more and less than 20 is denoted as A)	5.2
CC[C@H](C)[C@@H]1NC(=O)[C@H](CC)N(C)C(=O)C[C@@H](C(=O)N(C)CC)N(C)C(=O)[C@H](C2CCCC2)N(C)C(=O)C2(CCC2)NC(=O)[C@@H]2C[C@@H](C)CN2C(=O)[C@H](CCc2ccc(C(F)(F)F)c(OC)c2)NC(=O)CN(C)C(=O)[C@H](Cc2ccc(C)cc2)N2CC/C=C\C[C@@H](C2=O)N(C)C(=O)CN(C)C1=O [PP1855]	9.72	AA (a compound having 20 or more is denoted as AA)	A (a compound having 10 or more and less than 20 is denoted as A)	17.7
CC[C@H](C)[C@@H]1NC(=O)[C@H](CC)N(C)C(=O)C[C@@H](C(=O)N(C)C)N(C)C(=O)[C@H](C2CCCC2)N(C)C(=O)C2(CC(C)(C)C2)NC(=O)[C@@H]2C[C@H](C)CN2C(=O)[C@H](CCc2cc(F)c(C(F)(F)F)c(F)c2)NC(=O)CN(C)C(=O)[C@H](Cc2ccc(C)cc2)N2CC/C=C\C[C@@H](C2=O)N(C)C(=O)CN(C)C1=O [PP1856]	9.96	A (a compound having 10 or more and less than 20 is denoted as A)	A (a compound having 10 or more and less than 20 is denoted as A)	1.4
CC[C@H](C)[C@@H]1NC(=O)[C@H](CC2CC2)N(C)C(=O)C[C@@H](C(=O)N(C)C)N(C)C(=O)[C@H](C2CCCC2)N(C)C(=O)C2(CCC2)NC(=O)[C@@H]2C[C@@H](C)CN2C(=O)[C@H](CCc2ccc(C(F)(F)F)c(OC)c2)NC(=O)CN(C)C(=O)[C@H](Cc2ccc(C)cc2)N2CC/C=C\C[C@@H](C2=O)N(C)C(=O)CN(C)C1=O [PP1863]	9.89	A (a compound having 10 or more and less than 20 is denoted as A)	A (a compound having 10 or more and less than 20 is denoted as A)	88.8
CC[C@H](C)[C@@H]1NC(=O)[C@H](CC(C)C)N(C)C(=O)C[C@@H](C(=O)N(C)C)N(C)C(=O)[C@H](C2CCCC2)N(C)C(=O)C2(CCC2)NC(=O)[C@@H]2C[C@H](C)CN2C(=O)[C@H](CCc2cc(F)c(C(F)(F)F)c(F)c2)NC(=O)CN(C)C(=O)[C@H](Cc2ccc(C)cc2)N2CC/C=C\C[C@@H](C2=O)N(C)C(=O)CN(C)C1=O [PP1864]	10.19	A (a compound having 10 or more and less than 20 is denoted as A)	B (a compound having 3 or more and less than 10 is denoted as B)	10.2
CC[C@H](C)[C@@H]1NC(=O)[C@H](CC(C)C)N(C)C(=O)C[C@@H](C(=O)N(C)C)N(C)C(=O)[C@H](C2CCCC2)N(C)C(=O)C2(CCC2)NC(=O)[C@@H]2C[C@@H](C)CN2C(=O)[C@H](CCc2cc(F)c(C(F)(F)F)c(F)c2)NC(=O)CN(C)C(=O)[C@H](Cc2ccc(C)cc2)N2CC/C=C\C[C@@H](C2=O)N(C)C(=O)CN(C)C1=O [PP1866]	10.03	A (a compound having 10 or more and less than 20 is denoted as A)	B (a compound having 3 or more and less than 10 is denoted as B)	11.1
CC[C@H](C)[C@@H]1NC(=O)[C@H](CC(C)C)N(C)C(=O)C[C@@H](C(=O)N(C)C)N(C)C(=O)[C@H](C2CCCC2)N(C)C(=O)C2(CCC2)NC(=O)[C@@H]2C[C@@H](C)CN2C(=O)[C@H](CCc2ccc(C(F)(F)F)c(OC)c2)NC(=O)CN(C)C(=O)[C@H](Cc2ccc(C)cc2)N2CC/C=C\C[C@@H](C2=O)N(C)C(=O)CN(C)C1=O [PP1867]	9.77	A (a compound having 10 or more and less than 20 is denoted as A)	B (a compound having 3 or more and less than 10 is denoted as B)	47.8
CC[C@H](C)[C@@H]1NC(=O)[C@H](CC)N(C)C(=O)C[C@@H](C(=O)N(C)CC)N(C)C(=O)[C@H](C2CCCC2)N(C)C(=O)C2(CC(C)(C)C2)NC(=O)[C@@H]2C[C@H](C)CN2C(=O)[C@H](CCc2ccc(C(F)(F)F)c(OC)c2)NC(=O)CN(C)C(=O)[C@H](Cc2ccc(C)cc2)N2CC/C=C\C[C@@H](C2=O)N(C)C(=O)CN(C)C1=O [PP1868]	10.06	A (a compound having 10 or more and less than 20 is denoted as A)	B (a compound having 3 or more and less than 10 is denoted as B)	10.7
CCO[C@@H]1C[C@H]2C(=O)NC3(CCC3)C(=O)N(C)[C@@H](C3CCCC3)C(=O)N(C)[C@H](C(=O)N(C)CC)CC(=O)N(C)[C@@H](CC)C(=O)N[C@@H]([C@@H](C)CC)C(=O)N(C)CC(=O)N(C)[C@H]3C/C=C\CCN(C3=O)[C@@H](Cc3ccc(C)cc3)C(=O)N(C)CC(=O)N[C@@H](CCc3ccc(C(F)(F)F)c(OC)c3)C(=O)N2C1 [PP1869]	9.89	A (a compound having 10 or more and less than 20 is denoted as A)	A (a compound having 10 or more and less than 20 is denoted as A)	36.4
